Experimental data: patent US5114958A, “1,2,4-oxadiazole and 1,2,4-thiadiazole derivatives of fenamates as antiinflammatory agents” (Warner-Lambert Company, priority 1991, dated 1992)
Like-named read-outs stand apart in the source and are kept apart here.

Experiments:
5-lipoxygenase = target: T1, 5-lipoxygenase (Rattus norvegicus, UniProt P12527); assay: ARBL whole cell 5-lipoxygenase assay (LTB4 formation in RBL-1 cells, A23187-stimulated); assay type: cell-based; conditions: RBL-1 whole cells; for IC50: inhibition of LTB4 formation
T1 construct: host or cells: RBL-1
T1 sequence (P12527 1-673): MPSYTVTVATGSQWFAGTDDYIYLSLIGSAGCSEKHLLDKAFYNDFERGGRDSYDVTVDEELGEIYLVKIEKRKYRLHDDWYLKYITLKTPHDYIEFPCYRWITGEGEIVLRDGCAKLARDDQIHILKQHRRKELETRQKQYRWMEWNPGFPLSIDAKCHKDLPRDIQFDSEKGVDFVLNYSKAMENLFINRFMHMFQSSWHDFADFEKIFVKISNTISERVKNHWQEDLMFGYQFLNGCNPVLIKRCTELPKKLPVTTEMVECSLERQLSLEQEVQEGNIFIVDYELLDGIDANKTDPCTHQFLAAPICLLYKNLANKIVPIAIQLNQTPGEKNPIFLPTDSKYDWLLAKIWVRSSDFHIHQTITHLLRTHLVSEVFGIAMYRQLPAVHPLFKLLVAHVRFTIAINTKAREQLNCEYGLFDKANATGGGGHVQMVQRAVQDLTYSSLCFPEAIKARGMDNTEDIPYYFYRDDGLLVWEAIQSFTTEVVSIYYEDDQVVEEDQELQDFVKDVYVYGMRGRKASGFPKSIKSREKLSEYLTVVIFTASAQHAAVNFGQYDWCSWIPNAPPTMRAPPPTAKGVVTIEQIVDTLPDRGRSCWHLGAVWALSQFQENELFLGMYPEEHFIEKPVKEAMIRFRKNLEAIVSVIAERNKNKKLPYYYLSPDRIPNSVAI
Procedure: (§1) ARBL/ARBC Whole cell 5-lipoxygenase and Cyclooxygenase Aasays
(§2) The rat basophilic leukemia cell line (RBL-1) was obtained from the American Type Culture Collection (Rockville, Md.).
(§3) Radioimmunoassay (RIA) kits of LTB4 and PGF2α were obtained from Amersham (Arlington Heights, Ill.) and Seragen (Boston, Mass.), respectively.
(§4) RBL-1 cells are grown in suspension culture in Eagle's minimum essential medium supplemented with 12% fetal bovine serum at 37° C. in an incubator supplied with air-5% carbon dioxide. Cells are harvested by centrifugation. They are washed with cold phosphate buffered saline pH 7.4 (PBS; NaCl, 7.1 g; Na2 HPO4, 1.15 g; KH2 PO4, 0.2 g; and KCl, 0.2 g/L). Cells are finally suspended in PBS containing 1.0 mM calcium at a density of 2×10^6 cells/mL. Cells are incubated with and without test agent (in DMSO) (1% DMSO is without effect on arachidonic acid metabolism) for 10 minutes at room temperature. Calcium ionophore A23187 (5 μM) is added and cells are incubated for 7 minutes at 37° C. The reaction is stopped by chilling the tubes on ice for 10 minutes. Cells are separated by centrifugation and the supernatant is stored at -20° C. Aliquots (100 μL) are analyzed for LTB4 and PGF2α using radioimmunoassay kits as provided by the supplier.
(§5) Table 1 contains biochemical data obtained from this whole cell assay as IC5 s which are calculated as the amount of test compound causing 50% inhibition of LTB4 or PGF2α formation and the results of the CFE-2 assay.

Cyclooxygenase = target: T2, Cyclooxygenase (Rattus norvegicus, UniProt Q63921); assay: ARBC whole cell cyclooxygenase assay (PGF2α formation in RBL-1 cells, A23187-stimulated); assay type: cell-based; conditions: RBL-1 whole cells; for IC50: inhibition of PGF2α formation; for inhibition at 10 µM: read-out: ARBC % inhibition of PGF2α at 10 μM (class symbol)
T2 construct: host or cells: RBL-1
T2 sequence (Q63921 27-602): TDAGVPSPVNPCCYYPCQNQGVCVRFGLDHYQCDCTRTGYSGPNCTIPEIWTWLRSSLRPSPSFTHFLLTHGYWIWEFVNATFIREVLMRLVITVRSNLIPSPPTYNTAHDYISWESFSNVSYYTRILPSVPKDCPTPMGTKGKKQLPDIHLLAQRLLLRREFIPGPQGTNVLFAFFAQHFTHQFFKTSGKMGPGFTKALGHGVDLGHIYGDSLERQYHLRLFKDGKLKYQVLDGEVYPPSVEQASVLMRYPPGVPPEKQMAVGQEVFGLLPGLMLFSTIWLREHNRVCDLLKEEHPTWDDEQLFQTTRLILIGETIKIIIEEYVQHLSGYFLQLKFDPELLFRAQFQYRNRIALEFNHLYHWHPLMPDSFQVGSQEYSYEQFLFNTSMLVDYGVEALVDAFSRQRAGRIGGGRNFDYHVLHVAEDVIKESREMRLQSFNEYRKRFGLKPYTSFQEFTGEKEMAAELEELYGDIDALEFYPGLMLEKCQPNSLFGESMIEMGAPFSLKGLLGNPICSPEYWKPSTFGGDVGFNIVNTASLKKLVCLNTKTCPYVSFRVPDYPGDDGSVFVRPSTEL
Procedure: as §1, §2, §3, §4, §5

[1] = Carrageenan-Induced Rat Foot Paw Edema-2 (CFE-2) Assay; assay type: in vivo; conditions: dosed 1 hour before carrageenan, edema measured 5 hours after carrageenan
Procedure: Carrageenan-Induced Rat Foot Paw Edema-2 (CFE-2) Assay:Protocol
Carrageenan solution (1% w/v) is prepared by dissolving 100 mg carrageenan (Marine Colloidal Div., Springfield, N.J.) in 10 mL of sterile saline (0.9%) solution (Travenol). The solution is vortexed for 30 to 45 minutes. Animals are dosed with compound 1 hour before carrageenan challenge. Foot paw edema is induced by injecting 0.10 mL of the 1% carrageenan subcutaneously into the plantar portion of the right hind paw of each rat under light anesthesia. Initial foot paw volume is measured immediately following carrageenan challenge using mercury plethysmography (Buxco Electronics). Edema is measured 5 hours after carrageenan. The difference between the 5-hour and the initial paw volume is expressed as delta edema. The delta edema for each test group of animals is used to calculate the percent inhibition of edema achieved by the compound at the test dose compared with the vehicle control group. The ID40 (the dose at which swelling is inhibited by 40%) is calculated by probit analysis for the dose at which 40% inhibition occurs.
as §5

Row | IC50 (5-lipoxygenase) | IC50 (Cyclooxygenase) | inhibition at 10 µM (5-lipoxygenase; read-out: ARBL % inhibition of LTB4 at 10 μM (class symbol)) | inhibition at 10 µM (Cyclooxygenase) | inhibition at 10 µM (5-lipoxygenase; read-out: ARBL % inhibition of LTB4 at 10 μM) | Compound | CFE Percent inhibition at 30 mg/kg [1]
1 | 2.3 µM | 0.013 µM |  |  |  | Cc1ccc(Cl)c(Nc2ccccc2-c2noc(=O)[nH]2)c1Cl [Example 1, 3-[2-[(2,6-dichloro-3-methylphenyl)amino]phenyl]-1,2,4-oxadiazol-5(4H)-one] | 58%
2 |  |  | < 40% | < 40% |  | Cc1ccc(S(=O)(=O)c2nc(-c3ccccc3Nc3c(Cl)ccc(C)c3Cl)ns2)cc1 [Example 2, 2,6-Dichloro-3-methyl-N-[2-[5-[(4-methylphenyl)-sulfonyl]-1,2,4-thiadiazol-3-yl]phenyl]benzenamine] | 
3 |  |  |  | < 40% | 100% | Cc1ccc(Cl)c(Nc2ccccc2-c2nsc(N=C(N)N)n2)c1Cl [Example 3, 3-[2-[(2,6-dichloro-3-methylphenyl)amino]phenyl]-1,2,4-thiadiazol-5-yl-guanidine] | 
4 | 6.15 µM | 1.23 µM |  |  |  | Cc1ccc(Cl)c(Nc2ccccc2-c2nsc(NC#N)n2)c1Cl [Example 4, 3-[2-[(2,6-Dichloro-3-methylphenyl)amino]phenyl]-1,2,4-thiadiazol-5-yl-cyanamide] | 
